Assay: HPLC check for drug degradation after thermal processing of the electrode coating
Assay type: physicochemical
Conditions: coating heated to solid-state phase change (hot air tool), dissolved from electrode in solvent, compared to control solution
From the text: Prior attempts at heating a drug to form a more durable drug coating on an electrode surface have been less successful because the drug may degrade during the heating process due to overheating. One advantage of the present invention is that the controlled heating process, using a focused, direct heat source, achieves a change in solid state and micro-crack healing forming a conformable crystalline coating with a decrease in the defect density, without degrading the drug. […] Electrodes coated with beclomethasone dipropionate, according to the thermal processing methods described above and shown in FIG. 3, have been soaked in a solvent to dissolve the drug coating from the electrode surface. The resulting test solution was analyzed using HPLC and compared to HPLC results from a control sample of beclomethasone dipropionate in solution. Chromatograms of the test solution samples were identical to those of the control samples with regards to retention time of the major peak.

In the case of CCC(=O)OCC(=O)[C@@]1(OC(=O)CC)[C@@H](C)C[C@H]2[C@@H]3CCC4=CC(=O)C=C[C@]4(C)[C@@]3(Cl)[C@@H](O)C[C@@]21C [beclomethasone dipropionate anhydrous], the “degradation products by HPLC after thermal processing” value is reported as “no peaks associated with degradation products were observed”.
